In patent publication US20220125844A1 (priority 2020, published 2022):

What was measured:
[1] = tested on: primary human natural killer (NK) cells; settings: cited from earlier work
[2] = tested on: primary human NK cells (effector) with MV-4-11 target cells; assay: Primary human NK cell apoptosis assay, annexin V staining and flow cytometry; assay type: cell-based; settings: clinically-relevant concentration, morphine 25 ng/mL, two-hour incubation of effector cells; data only in FIG. 1
[3] = tested on: CAR-NK cells (effector) with MV-4-11 target cells; assay: CAR-NK cell apoptosis assay, annexin V staining and flow cytometry; assay type: cell-based, human; settings: clinically-relevant concentration, morphine 25 ng/mL, two-hour incubation of effector cells; data only in FIG. 1

| SMILES | primary human NK cell cytotoxicity after preincubation with opioid [1] | effect on primary human NK cell function (ability to induce apoptosis in MV-4-11 cells) [2] | effect on CAR-NK cell function (ability to induce apoptosis in MV-4-11 cells) [3] |
| --- | --- | --- | --- |
| CN1CC[C@]23c4c5ccc(O)c4O[C@H]2[C@@H](O)C=C[C@H]3[C@H]1C5 [morphine] | reduced | functionally inhibited | functionally inhibited |
| CCC(=O)C(CC(C)N(C)C)(c1ccccc1)c1ccccc1 (centres unmarked) [methadone] | reduced | – | – |
| C[C@@H](NC(=O)[C@@H](N)Cc1ccc(O)cc1)C(=O)NCC(=O)N(C)[C@@H](Cc1ccccc1)C(=O)NCCO [DAMGO, [D-Ala2, N-Me-Phe4, Gly5-ol]-enkephalin] | reduced | – | – |
